Experimental data reported in PMC12040169 (PLOS Biology, 2025).

Assay: in vitro
Settings: human, hela cells, % viability

Row | SMILES | viability at 28.5 h, 10 µM [%]
1 | Cn1ccnc1C(NC(=O)[C@@H]1C[C@@H]2C=C[C@H]1C2)c1ccc(F)cc1 (stereo partly drawn) [CBK281483] | 95.5
2 | Cc1nn(C)cc1-c1cncn1Cc1cccc(OC(C)C)c1 [CBK281484] | 95.3
3 | Cc1cc(CNC(=O)CCn2ccc(C)n2)on1 [CBK281485] | 97.3
4 | Cc1cc(CNC(=O)C(C)Cn2cccn2)on1 (stereo not drawn) [CBK281486] | 90.9
5 | Cc1cc(CNC(=O)Cn2nc(C)c(C)c2C)on1 [CBK281487] | 95.1
6 | CC(NC(=O)c1n[nH]c2c1CCC2)c1cccnc1 (stereo not drawn) [CBK281488] | 93.7
7 | c1ccc(Cn2cc(-c3cncn3CCCN3CCCCC3)cn2)cc1 [CBK281491] | 91.4
8 | Cc1nn(C)cc1-c1cncn1CCCN1CCCCC1 [CBK281493] | 96
9 | O=C(CCCn1ccnc1)NCC1(c2cccc(F)c2)CCCC1 [CBK281500] | 88.5
10 | O=C(C1CC2C=CC1C21CC1)N1CCC(Oc2cccnc2)CC1 (stereo not drawn) [CBK281501] | 101
11 | Cc1ccc(S(=O)(=O)NCCn2nc(C)c(C)c2C)s1 [CBK281502] | 86.7
12 | O=C(NCc1ccc2c(c1)CCCO2)C1CC2C=CC1C21CC1 (stereo not drawn) [CBK281503] | 89.1
13 | CC(O)(c1ccncc1)c1nccs1 (stereo not drawn) [CBK281504] | 90.1
14 | CC(C)Cc1cc(CNS(=O)(=O)Cc2ccccc2F)on1 [CBK281505] | 96.6
15 | Cc1cc(C)c(C)c(OCCCNC(=O)Cc2c(C)noc2C)c1 [CBK281506] | 100
16 | Cc1noc(C)c1CC(=O)NC(CN1CCCCC1)c1ccccc1 (stereo not drawn) [CBK281507] | 89.1
17 | COc1ccc(N2CC(C(=O)N(C)CC(F)(F)F)CC2=O)cc1 (stereo not drawn) [CBK281510] | 98.2
18 | Cc1noc(C)c1CC(=O)NC(C)CCc1ccc(F)cc1 (stereo not drawn) [CBK281511] | 89.8
19 | O=C(C1CC2C=CC1C21CC1)N1CCCC(c2nc3ccccc3[nH]2)C1 (stereo not drawn) [CBK281513] | 91.4
20 | CC1CCc2onc(C(=O)NCc3nccn3C)c2C1 (stereo not drawn) [CBK281514] | 68.9
21 | Cc1cc(C)n(C(C)CC(=O)NCc2ccccc2-n2ccnc2)n1 (stereo not drawn) [CBK281518] | 84.3
22 | CC1Oc2ccc(NC(=O)C3CC4C=CC3C43CC3)cc2NC1=O (stereo not drawn) [CBK281523] | 101
23 | CC(C)Cc1cc(CNC(=O)C(C)n2cc(Cl)cn2)on1 (stereo not drawn) [CBK281524] | 92.8
24 | O=C(C1CC2C=CC1C21CC1)N1CCC(Oc2cccc(F)c2)CC1 (stereo not drawn) [CBK281525] | 85.4

Row | SMILES | viability at 28.5 h, 10 µM [%]
25 | CCN1CC(C(=O)Nc2nc3c(s2)CCCCCC3)CC1=O (stereo not drawn) [CBK281526] | 84.2
26 | COc1ccc2[nH]c3c(c2c1)CN(C(=O)CCC1CCCO1)CC3 (stereo not drawn) [CBK281530] | 99.7
27 | Cc1cccc(OCC2CCCN(C(=O)Cn3cc(C)cn3)C2)c1 (stereo not drawn) [CBK281531] | 89.9
28 | CCCn1ncc(C(=O)NC(C)c2c(C)nn(CC)c2C)c1C (stereo not drawn) [CBK281532] | 85.5
29 | CCn1nc(C)c(C(C)NC(=O)c2ccnn2C(F)F)c1C (stereo not drawn) [CBK281535] | 88.4
30 | Cc1[nH]c2ccc(CNC(=O)Cn3ccnc3C(C)C)cc2c1C [CBK281540] | 87.6
31 | CC(C)(C)OC(=O)N1CCc2[nH]nc(Nc3ccccc3)c2C1 [CBK281541] | 80
32 | O=C([C@@H]1C[C@@H]2C=C[C@H]1C2)N1CCC(c2noc3cc(F)ccc23)CC1 [CBK281542] | 76.5
33 | CCn1cc(CN2CCN(C(=O)C3C4CCCCC43)CC2)c(C)n1 (stereo not drawn) [CBK281545] | 97.1
34 | CCCn1c(C)cc2cc(NC(=O)Cn3cc(C)nn3)ccc21 [CBK281548] | 104
35 | O=C(NCC1(c2ccccc2F)CCOCC1)[C@@H]1C[C@@H]2C=C[C@H]1C2 [CBK281552] | 91.6
36 | CCOc1ccc2c(c1)cc(C(=O)NCc1cc(CC)no1)n2C [CBK281553] | 95.5
37 | CCc1cc(CNC(=O)c2cc(C)nc3c(C)cccc23)on1 [CBK281554] | 108
38 | CCc1cc(CNC(=O)c2ccc(C)c(-n3nc(C)cc3C)c2)on1 [CBK281557] | 91.7
39 | Cc1nc(C)n(CC(=O)NCCCc2ccc(Cl)cc2)n1 [CBK281559] | 90.9
40 | Cc1cc(C)n(CC(=O)NCCCc2ccc(Cl)cc2)c(=O)n1 [CBK281561] | 96.3
41 | CC(=O)N1CCC[C@@H](N)[C@@H]1c1ccccc1F [CBK281562] | 111
42 | N[C@@H]1CCCN(C(=O)C2CC2)[C@H]1c1ccccc1F [CBK281563] | 97
43 | Cc1ccc(C(=O)NCCCc2ccc(Cl)cc2)c(=O)n1C [CBK281567] | 80.4
44 | CCn1nc(C)c(-c2cncn2CCN(C)C2CCCC2)c1C [CBK281569] | 109
45 | CCN1CCc2cc(-c3cncn3CCCn3nc(C)cc3C)ccc21 [CBK281572] | 104
46 | COc1ccc2oc(C(=O)NC(C)c3cn(C)nc3C)cc2c1 (stereo not drawn) [CBK281573] | 90.9
47 | Cn1nc(-c2ccc(F)cc2)cc1C(=O)NCCn1ccnc1 [CBK281576] | 87.8
48 | CC(C)(C)OC(=O)N1CCCC1C1COc2ccccc2C1=O (stereo not drawn) [CBK281579] | 89.2

Row | SMILES | viability at 28.5 h, 10 µM [%]
49 | CC(C)(C)C1CCc2onc(C(=O)NCCn3ccnc3)c2C1 (stereo not drawn) [CBK281581] | 87.1
50 | O=C(NCCn1ccnc1)C1CC(=O)N(c2cccc(F)c2)C1 (stereo not drawn) [CBK281582] | 105
51 | Cn1c(C(=O)Nc2ccc(Cn3cncn3)cc2)cc2cc(F)ccc21 [CBK281584] | 104
52 | Cc1nccn1CCCNC(=O)c1ccc(N2CCCC2)cc1 [CBK281589] | 81.6
53 | CCc1cc(CNC(=O)C(c2ccccc2)N2CCC(C)CC2)on1 (stereo not drawn) [CBK281592] | 92.4
54 | Cc1cc(C)n(C(C(=O)NCCOc2ccc(F)cc2)C(C)C)n1 (stereo not drawn) [CBK281595] | 81.4
55 | O=C(NCCOc1ccc(F)cc1)c1cccc(-n2cccn2)c1 [CBK281596] | 101
56 | CC(C)c1nccn1CC(=O)NCCOc1ccc(F)cc1 [CBK281597] | 89.6
57 | CC1CCCN(CC(C)(C)NC(=O)c2cc(C(F)(F)F)nn2C)C1 (stereo not drawn) [CBK281598] | 87.9
58 | CC1(NC(=O)c2cccc(OCCN3CCCC3=O)c2)CCC1 [CBK281602] | 92.8
59 | COc1nn(CC(=O)NC2(C)CCC2)c(=O)c2ccccc12 [CBK281603] | 83.2
60 | CC1(NC(=O)CC(c2ccncc2)c2c[nH]c3ccccc23)CCC1 (stereo not drawn) [CBK281610] | 88.8
61 | O=C(c1cc2c(F)cccc2[nH]1)N1CCCCC1CCN1CCCC1 (stereo not drawn) [CBK281612] | 85.7
62 | CCn1c(CN2CCC(n3nc(C)cc3C)CC2)nc2ccccc21 [CBK281615] | 88.5
63 | Cc1ccn2c(CN3CCC(n4nc(C)cc4C)CC3)c(C)nc2c1 [CBK281616] | 83.6
64 | Cc1cc(C)n(C2CCN(Cc3c(C)nc4c(C)cccn34)CC2)n1 [CBK281617] | 101
65 | Cc1cc(C)n(C2CCN(Cc3nc4ccccc4n3C)CC2)n1 [CBK281621] | 84.3
66 | Cc1cc(C)n(C2CCN(Cc3ccc4ccccc4n3)CC2)n1 [CBK281622] | 87.9
67 | CCn1cc(-c2cncn2CCOc2ccc(C)cc2)cn1 [CBK281623] | 88.5
68 | CC(NC(=O)CCc1ccncc1)c1ccc2c(c1)CCCO2 (stereo not drawn) [CBK281624] | 88.3
69 | Cc1ccn(CCNC(=O)C(C)Cc2cccs2)n1 (stereo not drawn) [CBK281625] | 106
70 | COc1ccc(CCNC(=O)c2cc3c([nH]c2=O)CCC3)cc1C [CBK281627] | 83.2
71 | Cc1nc(C)c(C(=O)NC2CCCNC2=O)s1 (stereo not drawn) [CBK281628] | 86.8
72 | CCc1nccn1CCC(=O)Nc1ccc2c(c1)nc(CC)n2CC [CBK281629] | 81.2

Row | SMILES | viability at 28.5 h, 10 µM [%]
73 | Cc1ccc2oc(C(=O)N(C)Cc3c(C)nn(C)c3C)c(C)c2c1 [CBK281631] | 80.9
74 | Cc1cc(C(=O)NC(C)Cn2nc(C)cc2C)c2cccc(C)c2n1 (stereo not drawn) [CBK281635] | 91.4
75 | CC(NC(=O)Cn1c(=O)oc2ccc(Cl)cc21)C1CC2CCC1C2 (stereo not drawn) [CBK281636] | 87.7
76 | Cc1nc(-c2cccnc2)sc1C(=O)NC(C)C1CC2CCC1C2 (stereo not drawn) [CBK281637] | 84.2
77 | CCc1nccn1CC(=O)NCC(C)n1nc(C)cc1C (stereo not drawn) [CBK281638] | 80.4
78 | Cc1cc(C)n(C(C)CNC(=O)C(C)Cn2cccn2)n1 (stereo not drawn) [CBK281639] | 87.6
79 | O=C(C1CC2C=CC1C21CC1)N1CCN(c2nccs2)CC1 (stereo not drawn) [CBK281640] | 90.4
80 | O=C(c1ccncc1)N1CCCCC1c1nc2ccccc2[nH]1 (stereo not drawn) [CBK281641] | 87.2
81 | COc1ccc(CCNC(=O)CCn2nc(C)c(Cl)c2C)cc1C [CBK281643] | 89.5
82 | CCc1cc(CNC(=O)C(c2ccc(F)cc2)N(C)C)on1 (stereo not drawn) [CBK281648] | 88.4
83 | Cc1nc(C)n(CC(=O)N2CCc3sccc3C2c2ccco2)n1 (stereo not drawn) [CBK281649] | 98.8
84 | CC(Cn1cc(Cl)cn1)C(=O)NC(C)C1CC2CCC1C2 (stereo not drawn) [CBK281650] | 110
85 | Cc1cc(C(=O)NC(C)C2CC3CCC2C3)c2cnn(C(C)C)c2n1 (stereo not drawn) [CBK281652] | 96
86 | CCc1nnsc1C(=O)N1CCc2[nH]c3c(C)cccc3c2C1 [CBK281655] | 86.2
87 | CC(C)C(=O)N1C[C@H]2NC(=O)c3ccccc3C(=O)[C@@]2(C)C1 [CBK281658] | 103
88 | CC(C)CC(=O)N1C[C@H]2NC(=O)c3ccccc3C(=O)[C@@]2(C)C1 [CBK281659] | 96.1
89 | CC(C)C(NC(=O)c1cc2c([nH]c1=O)CCC2)c1ccc(F)cc1 (stereo not drawn) [CBK281662] | 93.4
90 | Cn1nccc1CN1CCCC(COc2ccccc2F)C1 (stereo not drawn) [CBK281663] | 87.2
91 | CC(NC(=O)CCc1ccncc1)c1nc2ccccc2s1 (stereo not drawn) [CBK281666] | 98.9
92 | CCc1cc(CNC(=O)C(c2ccc(Cl)cc2)N(C)C)on1 (stereo not drawn) [CBK281670] | 96.6
93 | C[C@]12CN(C(=O)C3CCCC3)C[C@H]1NC(=O)c1ccccc1C2=O [CBK281672] | 95.4
